Key:
[1] = test system: K. pneumoniae; assay: ESBL NDP test using cultured strains; format: biochemical, Klebsiella pneumoniae; design: key: (+) and (−) referred to color change being, red to yellow or unchanged, respectively; (+) and (−) referred to color change being, red to yellow or unchanged, respectively
Protocol: (§1) Strains were isolated on Mueller-Hinton agar (Biorad, Marnes-la-Coquette, France) and incubated at 37° C. for 16 h to 24 h before performing the NDP rapid ESBL test as follows. One calibrated inoculated loop (10 μl) of the tested strain was resuspended in 150 μl of 20 mM Tris-HCl lysis buffer previously distributed in Microbead tubes (Ultraclean Microbial DNA isolation kit Bead Tubes, MO BIO Laboratories, Carlsbad, USA). Mechanical lysis of bacteria was performed by strong agitation of Microbead tubes using a vortex adapter (MO BIO Laboratories) for 30 min at room temperature. This bacterial suspension was centrifuged at 10,000×g at room temperature for 5 min. Thirty μl of the supernatant was mixed in a well of a 96-well tray with 100 μl of a 1 ml solution made of 3 mg of purified cefotaxime sodium salt (Sigma-Aldrich, Saint-Quentin-Fallavier, France) in a pH 7.8 phenol red solution. […]. The phenol red solution was made by taking 2 ml of a concentrated pH 8 phenol solution (made from a mixture of phenol red 0.5% in distilled water) to which 16.6 ml of distilled water was added. The pH value was then adjusted to a 7.8 value by adding drops of a 1 N NaOH solution. Mixture of the phenol red solution and the enzymatic suspension being tested was incubated at 37° C. for 30 min. Similarly, culture extracts were analyzed in wells containing cefotaxime and tazobactam (4 mg/ml). Other concentrations of tazobactam and other ß-lactamase inhibitors were tested giving less clear results (data not shown). […] This definition of test positivity will be applied throughout the study.

[2] = test system: K. pneumoniae; assay: ESBL NDP test using spiked blood cultures; format: biochemical, Klebsiella pneumoniae; design: key: (+) and (−) referred to color change being, red to yellow or unchanged, respectively; (+) and (−) referred to color change being, red to yellow or unchanged, respectively
Protocol: as §1
Rapid detection of ESBL producers was attempted from spiked blood cultures which positivity was assessed using the BactAlert blood culture system (bioMérieux). […] This inoculum was reached after 24-48 h incubation in this BactAlert system. Strains were inoculated into blood culture system in presence of 10 ml of sterile blood. The panel of strains used for spiking blood cultures included either non-ESBL producers (n=24) or ESBL producers (n=64) (Table 4). Spiked blood cultures were made of 1×10^3 CFU of each strain and incubated 24 to 48 h before a positivity of the blood culture was detected by the BactAlert system. Then, 15 ml of spiked blood culture were transferred in a sterile tube and centrifuged at 1,500×g for 3 min to pellet the red blood cells. The supernatant was recovered and centrifuged for 15 min at 4,000×g to pellet the bacteria. The bacterial pellet was then resuspended in 500 μl of distilled water, transferred in 1.5 ml tube and thoroughly vortexed for 15 sec to lyse the remnant red blood cells and wash the bacterial pellet. After 5 min of centrifugation at 10,000×g, the bacterial pellet was resuspended in 150 μl of 20 mM Tris-HCl lysis buffer and distributed in beadtubes. The ESBL NDP test was then applied to this pellet as described above. Experiments were systematically performed in triplicate.

[3] = test system: K. pneumoniae; assay: Susceptibility testing, MIC by Etest; format: cell-based, Klebsiella pneumoniae
Protocol: Susceptibility testing was performed by determining MIC values using the Etest® (AB bioMérieux; Solna, Sweden) on Mueller-Hinton agar plates at 37° C. and results were recorded according to US guidelines (CLSI), as updated in 2012 (2). The breakpoints for cefotaxime are susceptible (S)≤1 and resistant (R)≥4 μg/ml, and for ceftazidime S≤4 and R≥16 μg/ml.

[4] = K. pneumoniae BG 1202 5484, Penicillinase
[5] = K. pneumoniae Wild-type penicillinase, n=2

CO/N=C(\C(=O)N[C@@H]1C(=O)N2C(C(=O)O)=C(COC(C)=O)CS[C@H]12)c1csc(N)n1 [CTX, cefotaxime]
2 to 8 µg/mL: MICs range ([3]; K. pneumoniae SHV-12, n=2)
1 µg/mL: MICs range ([3]; K. pneumoniae SHV-2a, n=2) | MICs range ([3]; K. pneumoniae SHV-12, n=1)
−: ESBL NDP Test from: Colonies ([1]; K. pneumoniae 09.190, SHV-2a) | ESBL NDP Test from: Colonies ([1]; K. pneumoniae ANG, DHA-1) | ESBL NDP Test from: Colonies [1, 4] | Test (color change) ([1]; K. pneumoniae DHA-1, n=1) | Test (color change) ([1]; K. pneumoniae SHV-2a, n=2) | Test (color change) ([1]; K. pneumoniae SHV-12, n=1) | Test (color change) [1, 5] | ESBL NDP Test from: Blood culture ([2]; K. pneumoniae ANG, DHA-1) | ESBL NDP Test from: Blood culture [2, 4]
0.02 to 0.03 µg/mL: MICs range [3, 5]
+: ESBL NDP Test from: Colonies ([1]; K. pneumoniae 09.127, SHV-2a) | ESBL NDP Test from: Colonies ([1]; K. pneumoniae 09.138, TEM-3) | ESBL NDP Test from: Colonies ([1]; K. pneumoniae 09.158, SHV-12) | ESBL NDP Test from: Colonies ([1]; K. pneumoniae 09.162, TEM-52) | ESBL NDP Test from: Colonies ([1]; K. pneumoniae 09.169, TEM-52) | ESBL NDP Test from: Colonies ([1]; K. pneumoniae 09.181, SHV-2a) | ESBL NDP Test from: Colonies ([1]; K. pneumoniae 09.200, TEM-3) | ESBL NDP Test from: Colonies ([1]; K. pneumoniae 09.217, SHV-5) | ESBL NDP Test from: Colonies ([1]; K. pneumoniae 09.45, SHV-12) | ESBL NDP Test from: Colonies ([1]; K. pneumoniae 09.60, SHV-5) | ESBL NDP Test from: Colonies ([1]; K. pneumoniae 09.99, SHV-2a) | ESBL NDP Test from: Colonies ([1]; K. pneumoniae 10.159, CTX-M-3) | Test (color change) ([1]; K. pneumoniae CTX-M-3, n=1) | Test (color change) ([1]; K. pneumoniae CTX-M-14, n=3) | Test (color change) ([1]; K. pneumoniae CTX-M-15, n=28) | Test (color change) ([1]; K. pneumoniae DHA-2, n=1) | ESBL NDP Test from: Colonies ([1]; K. pneumoniae FOR, DHA-2) | Test (color change) ([1]; K. pneumoniae GES-1, n=1) | ESBL NDP Test from: Colonies ([1]; K. pneumoniae MEK, CTX-M-15) | ESBL NDP Test from: Colonies ([1]; K. pneumoniae SHI, CTX-M-15) | Test (color change) ([1]; K. pneumoniae SHV-2a, n=4) | Test (color change) ([1]; K. pneumoniae SHV-5, n=2) | Test (color change) ([1]; K. pneumoniae SHV-12, n=2) | Test (color change) ([1]; K. pneumoniae SHV-28, n=3) | Test (color change) ([1]; K. pneumoniae TEM-3, n=3) | Test (color change) ([1]; K. pneumoniae TEM-52, n=2) | ESBL NDP Test from: Blood culture ([2]; K. pneumoniae 09.127, SHV-2a) | ESBL NDP Test from: Blood culture ([2]; K. pneumoniae 09.138, TEM-3) | ESBL NDP Test from: Blood culture ([2]; K. pneumoniae 09.158, SHV-12) | ESBL NDP Test from: Blood culture ([2]; K. pneumoniae 09.162, TEM-52) | ESBL NDP Test from: Blood culture ([2]; K. pneumoniae 09.169, TEM-52) | ESBL NDP Test from: Blood culture ([2]; K. pneumoniae 09.181, SHV-2a) | ESBL NDP Test from: Blood culture ([2]; K. pneumoniae 09.190, SHV-2a) | ESBL NDP Test from: Blood culture ([2]; K. pneumoniae 09.200, TEM-3) | ESBL NDP Test from: Blood culture ([2]; K. pneumoniae 09.217, SHV-5) | ESBL NDP Test from: Blood culture ([2]; K. pneumoniae 09.45, SHV-12) | ESBL NDP Test from: Blood culture ([2]; K. pneumoniae 09.60, SHV-5) | ESBL NDP Test from: Blood culture ([2]; K. pneumoniae 09.99, SHV-2a) | ESBL NDP Test from: Blood culture ([2]; K. pneumoniae 10.159, CTX-M-3) | ESBL NDP Test from: Blood culture ([2]; K. pneumoniae FOR, DHA-2) | ESBL NDP Test from: Blood culture ([2]; K. pneumoniae MEK, CTX-M-15) | ESBL NDP Test from: Blood culture ([2]; K. pneumoniae SHI, CTX-M-15)
>16 µg/mL: MICs range ([3]; K. pneumoniae CTX-M-3, n=1) | MICs range ([3]; K. pneumoniae CTX-M-14, n=3) | MICs range ([3]; K. pneumoniae CTX-M-15, n=28) | MICs range ([3]; K. pneumoniae DHA-1, n=1) | MICs range ([3]; K. pneumoniae DHA-2, n=1) | MICs range ([3]; K. pneumoniae SHV-5, n=2) | MICs range ([3]; K. pneumoniae SHV-28, n=3) | MICs range ([3]; K. pneumoniae TEM-52, n=2)
0.5 µg/mL: MICs range ([3]; K. pneumoniae GES-1, n=1)
